Data on 1 compound can be found in patent publication US20070123426A1, “Mixtures” (BASF Aktiengesellschaft, priority 2005, published 2007).

Holding throughout (assay): greenhouse post-emergence herbicidal test
Assay type in all cases: in vivo

Test [1] concerns SOLNI (Solanum nigrum). The settings on record: SOLNI; a) 3.125 g/ha, MSO or COC 1.25%, scale 0-100. From the text: (§1) The culture vessels used were plastic flowerpots filled, as substrate, with sandy loam comprising about 3% of humus. The seeds of the test plants were sown separated according to species.
(§2) For the post-emergence treatment, the test plants were initially cultivated to a height of 3-17 cm according to their habit and only then treated with the active compounds, which had been suspended or emulsified in water. To this end, the test plants were either sown directly and cultivated in the same vessels, or they were initially cultivated separately as seedlings and transplanted into the test vessels a few days prior to the treatment. According to the species, the plants were kept at temperatures of from 15° C. to 25° C. or from 20 to 35° C. The trial period extended over 3 weeks. During this time the plants were tended and their response to the individual treatments was evaluated.
(§3) The application in the greenhouse was carried out at a spray liquor application rate of 200 l/ha.

For test [2], the system named is PANMI (Panicum milliaceum). The following applies: PANMI; a) 12.5 g/ha, MSO or COC 1.25%, scale 0-100.
Text: as §1, §2, §3

The subject of test [3] is XANST (Xanthium strumarium). The following applies: XANST; a) 12.5 g/ha, MSO or COC 1.25%, scale 0-100.
Text: as §1, §2, §3

The test system of test [4] is PANDI (Panicum dichotomiflorum). The following applies: PANDI; a) 25 g/ha, MSO or COC 1.25%, scale 0-100.
Text: as §1, §2, §3

Test [5] deals with SORBI (Sorghum bicolor). The following applies: SORBI; a) 25 g/ha, MSO or COC 1.25%, scale 0-100.
Text: as §1, §2, §3

Test [6] has as its system HELAN (Helianthus annua). The settings on record: HELAN; a) 6.25 g/ha, MSO or COC 1.25%, scale 0-100.
Text: as §1, §2, §3

For test [7], the system named is SETVI (Setaria viridis). The following applies: SETVI; a) 12.5 g/ha, MSO or COC 1.25%, scale 0-100.
Text: as §1, §2, §3

The subject of test [8] is ECHCG (Echinochloa crus-galli). The settings on record: MSO or COC 1.25%, scale 0-100.
Text: as §1, §2, §3

In test [9] the test system is AMBEL (Ambrosia elatior). The following applies: AMBEL; a) 3.125 g/ha, MSO or COC 1.25%, scale 0-100.
Text: as §1, §2, §3

Consider `Cc1c(C(=O)c2cnn(C)c2O)ccc(S(C)(=O)=O)c1C1=NOCC1` [a)], for which the observed effect was 30 in [1]; 75 in test [2]; 65 in [3]; 0 in [4]; 10 in test [5]; 30 in test [6]. Further, the observed effect in test [7] worked out at 60; in test [8] (ECHCG; a) 12.5 g/ha), 0; in [8] (ECHCG; a) 25 g/ha) it was 0; in test [9], 60.
